Patent publication US11149230B2, “Process for extracting carboxylic acids produced by anaerobic fermentation from fermentable biomass” (AFYREN, priority 2015, dated 2021)

Legend:
[1] = test system: optimized anaerobic microbial mix; experiment: Test 2: comparison of fermentations in the presence or absence of heptanoic acid; assay type: cell-based; conditions: grass cuttings/mowings 25 g/l dry matter, 38° C., 160 h, initial addition of 2.8 g/l
Description: Two fermentations of grass cuttings/mowings in non-sterile mode, at a concentration of 25 g/l of dry matter, in an anaerobic bioreactor with a working volume of 2 l, operated in mesophilic mode (38° C.), were carried out in parallel for 160 h. In the first experiment, after inoculation of an optimized anaerobic microbial mix, an initial addition of heptanoic acid in an amount of 2.8 g/l was carried out. This presence of heptanoic acid makes it possible to understand the biocompatible nature of an extraction carried out with this type of solvent. Indeed, the culture medium after extraction is reintroduced into the bioreactor and may contain traces of extraction solvent up to the amount of their solubility threshold. The second fermentation, which is de facto a control culture, was carried out in parallel under the same conditions except for the addition of heptanoic acid.
During these fermentations, liquid-phase and gas-phase metabolite monitorings were carried out. At the end of fermentation, the yields obtained regarding the production of volatile fatty acids is 0.33 g of VFA/g of dry matter in the case of the experiment with the addition of heptanoic acid, and 0.39 g of VFA/g of dry matter for the control fermentation. […]

[2] = test system: optimized anaerobic microbial mix; experiment: Test 3: comparison of fermentation in the presence or absence of octanoic acid; assay type: cell-based; conditions: restoration waste 50 g/l dry matter, initial addition of 0.7 g/l
Description: Two fermentations of grass cuttings/mowings in non-sterile mode, at a concentration of 25 g/l of dry matter, in an anaerobic bioreactor with a working volume of 2 l, operated in mesophilic mode (38° C.), were carried out in parallel for 160 h. In the first experiment, after inoculation of an optimized anaerobic microbial mix, an initial addition of heptanoic acid in an amount of 2.8 g/l was carried out. […] The second fermentation, which is de facto a control culture, was carried out in parallel under the same conditions except for the addition of heptanoic acid.

Compound	negative effect on the production of volatile fatty acids versus control fermentation [1]	yield of production of volatile fatty acids at the end of fermentation [1]	yield of production of volatile fatty acids at the end of fermentation [2]
CCCCCCC(=O)O [heptanoic acid, Heptanoic acid]	about 15%	0.33 g of VFA/g of dry matter	
CCCCCCCC(=O)O [octanoic acid, Octanoic acid]			0.3 g of VFA/g of dry matter
